Where two headings read alike, the source gives them in different places.
Columns and labels:
WT HCMV Pr = target: T1, WT HCMV Pr (Human cytomegalovirus, UniProt P16753, A143V/A209V); experiment: biochemical; type: biochemical
T1 sequence (P16753 1-256 A143V/A209V): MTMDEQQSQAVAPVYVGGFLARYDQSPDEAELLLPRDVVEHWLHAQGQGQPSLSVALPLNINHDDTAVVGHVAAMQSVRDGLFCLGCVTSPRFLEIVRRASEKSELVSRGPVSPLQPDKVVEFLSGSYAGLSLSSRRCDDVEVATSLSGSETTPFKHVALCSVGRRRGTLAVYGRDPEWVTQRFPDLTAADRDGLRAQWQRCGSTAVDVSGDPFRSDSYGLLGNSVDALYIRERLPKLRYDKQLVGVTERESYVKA

[1] = target: HCMV C-A (HCMV Pr C84A, C87A, C138A, C202A) (Human cytomegalovirus, UniProt P16753, A143V/A209V/C138A/C202A/C84A/C87A); experiment: biochemical
HCMV C-A (C161) [2] = target: T2, HCMV C-A (C161) (Human cytomegalovirus, UniProt P16753, A143V/A209V/C138A/C202A/C84A/C87A); type: binding; settings: intact protein LC/MS
HCMV C-A [3] = target: T3, HCMV C-A (Human cytomegalovirus, UniProt P16753, A143V/A209V/C138A/C202A/C84A/C87A); settings: for t1/2 HCMV C-A: 0.693 divided by kinact
HCMV C-A [4] = target: T3, HCMV C-A; experiment: biochemical
HSV1 Pr = HSV1 Pr (Human herpesvirus 1, UniProt P10210); experiment: Fluorogenic substrate inhibition assay, HSV1 Pr; type: biochemical
EBV Pr = experiment: Fluorogenic substrate inhibition assay, EBV Pr; type: biochemical, Epstein-Barr virus; settings: read-out: IC50 EBV Pr; one hour incubation
HCMV C-A S225M [5] = target: T4, HCMV C-A S225M (Human cytomegalovirus, UniProt P16753, A143V/A209V/C138A/C202A/C84A/C87A/S225M); experiment: KI and kinact determination, HCMV C-A S225M; type: biochemical
HCMV C-A [6] = target: T3, HCMV C-A; experiment: Time-course inhibitor labeling by intact protein LC/MS, HCMV C-A; type: binding; settings: time course in the absence of DTT
HCMV C-A S225M [7] = target: T4, HCMV C-A S225M; experiment: Time-course inhibitor labeling by intact protein LC/MS, HCMV C-A S225M dimer; type: binding; settings: time course in the absence of DTT
HFF-1 cells [8] = experiment: Cell death three days post-reinfection; type: cell-based, human
HCMV C-A [9] = target: T3, HCMV C-A; experiment: In-gel fluorescence competition assay in HFF-1 cell lysate; type: binding
HCMV C-A (C161) [10] = target: T2, HCMV C-A (C161); type: binding; settings: 5 μM protein in Tris, 50 μM compound, overnight
HFF-1 cells [11] = experiment: Cytotoxicity determined in parallel to antiviral EC50; settings: over the course of the antiviral assay
HCMV C-A [12] = target: T3, HCMV C-A; experiment: In-gel fluorescence direct detection assay in HFF-1 cell lysate; type: binding; settings: read-out: EC50 reactivity with HCMV C-A (direct in-gel fluorescence); HFF-1 cell lysates
[13] = target: Human Cytomegalovirus Protease C84A, C87A, C138A, C202A, S225M (human cytomegalovirus) (UniProt P16753); experiment: SEC

Row | Compound | IC50 (WT HCMV Pr) [µM] | IC50 [1] [µM] | kinact HCMV C-A (HCMV C-A [3]) [min⁻¹] | kinact/KI HCMV C-A (HCMV C-A [3]) [M⁻¹ s⁻¹] | t1/2 HCMV C-A (HCMV C-A [3]) [min] | Ki (HCMV C-A [4]) [µM] | IC50 (HSV1 Pr) [µM] | IC50 (EBV Pr) [µM] | further results
1 | O=C(CCl)Cn1cc(-c2ccccc2)nn1 [Compound 31, 1-Chloro-3-(4-phenyl-1H-1,2,3-triazol-1-yl)propan-2-one] | 33 | 25 | 0.026 | 11.3 | 26 | 38 |  |  | reactivity with C161 (labeling of HCMV C-A) (HCMV C-A (C161) [2]): showed reactivity with C161
2 | O=C(CCl)Cn1cc(-c2ccc([N+](=O)[O-])cc2)nn1 [Compound 34, 1-Chloro-3-(4-(4-nitrophenyl)-1H-1,2,3-triazol-1-yl)propan-2-one] | 6 | 22 |  |  |  |  | 51 |  | 
3 | N#Cc1ccc(-c2cn(CC(=O)CCl)nn2)cc1 [Compound 35, 4-(1-(3-Chloro-2-oxopropyl)-1H-1,2,3-triazol-4-yl)benzonitrile] | 11 | 33 |  |  |  |  | 207 | 21 | 
4 | O=C(CCl)Cn1cc(-c2ccc(Br)cc2)nn1 [Compound 36, 1-(4-(4-Bromophenyl)-1H-1,2,3-triazol-1-yl)-3-chloropropan-2-one] | 5 | 25 |  |  |  |  | 35 | 17 | 
5 | O=C(CCl)Cn1cc(-c2ccc(Cl)cc2)nn1 [Compound 37, 1-Chloro-3-(4-(4-chlorophenyl)-1H-1,2,3-triazol-1-yl)propan-2-one] | 5 | 32 |  |  |  |  | 98 | 11 | 
6 | O=C(CCl)Cn1cc(-c2cccc(Cl)c2)nn1 [Compound 38, 1-Chloro-3-(4-(3-chlorophenyl)-1H-1,2,3-triazol-1-yl)propan-2-one] | 6 | 30 |  |  |  |  | 145 | 8 | 
7 | CC(=O)Nc1cccc(-c2cn(CC(=O)CCl)nn2)c1 [Compound 39, N-(3-(1-(3-Chloro-2-oxopropyl)-1H-1,2,3-triazol-4-yl)phenyl)acetamide] | 18 | 46 |  |  |  |  | 188 | 52 | 
8 | CNC(=O)OCc1c(-c2ccccc2)nnn1CC(=O)CCl [Compound 41, (1-(3-Chloro-2-oxopropyl)-4-phenyl-1H-1,2,3-triazol-5-yl)methyl methylcarbamate] | 68 | 60 |  |  |  |  | > 1000 | 7 | 
9 | CN(C)C(=O)OCc1c(-c2ccccc2)nnn1CC(=O)CCl [Compound 42, (1-(3-Chloro-2-oxopropyl)-4-phenyl-1H-1,2,3-triazol-5-yl)methyl dimethylcarbamate] | 33 | 101 |  |  |  |  | > 1000 |  | 
10 | O=C(CCl)Cn1nnc(-c2ccccc2)c1COC(=O)NCc1ccccc1 [Compound 43, (1-(3-Chloro-2-oxopropyl)-4-phenyl-1H-1,2,3-triazol-5-yl)methyl benzylcarbamate] | 4 | 33 | 0.024 | 45 | 29 | 9 | > 1000 | 2 | kinact HCMV C-A S225M (HCMV C-A S225M [5]): 0.011 min⁻¹; final protein labeling HCMV C-A (HCMV C-A [6]): 100%; final protein labeling HCMV C-A S225M (HCMV C-A S225M [7]): 100%; cell death three days post-reinfection (HFF-1 cells [8]): minimal; EC50 (HCMV C-A [9]): 3 µM; labeling of HCMV C-A at C161 (HCMV C-A (C161) [10]): 100%; CC50 in parallel to antiviral EC50 (HFF-1 cells [11]): 11 μΜ
11 | COCCNC(=O)OCc1c(-c2ccccc2)nnn1CC(=O)CCl [Compound 44, (1-(3-Chloro-2-oxopropyl)-4-phenyl-1H-1,2,3-triazol-5-yl)methyl (2-methoxyethyl)carbamate] | 13 | 54 | 0.022 | 12.7 | 31 | 29 | 840 | 12 | 
12 | O=C(CCl)Cn1nnc(-c2ccccc2)c1COC(=O)N1CCOCC1 [Compound 45, (1-(3-Chloro-2-oxopropyl)-4-phenyl-1H-1,2,3-triazol-5-yl)methyl morpholine-4-carboxylate] | 53 | 66 | 0.020 | 12.8 | 35 | 26 | 670 | 4 | 
13 | O=C(CCl)Cn1nnc(-c2ccccc2)c1COC(=O)NCCN1CCOCC1 [Compound 46, (1-(3-Chloro-2-oxopropyl)-4-phenyl-1H-1,2,3-triazol-5-yl)methyl (2-morpholinoethyl)carbamate] |  | 182 |  |  |  |  |  |  | 
14 | O=C(CCl)Cn1nnc(-c2ccccc2)c1COC(=O)NCCCN1CCCC1=O [Compound 47, (1-(3-Chloro-2-oxopropyl)-4-phenyl-1H-1,2,3-triazol-5-yl)methyl (3-(2-oxopyrrolidin-1-yl)propyl)carbamate] |  | 135 | 0.016 | 12.7 | 44 | 21 |  |  | 
15 | C#CCNC(=O)OCc1c(-c2ccccc2)nnn1CC(=O)CCl [Compound 48] |  |  |  |  |  |  |  |  | IC50 (WT HCMV Pr; read-out: IC50 WT HCMV Pr, one hour incubation): 8 µM; EC50 (HCMV C-A [12]): 4 µM
16 | Human Cytomegalovirus Protease C84A, C87A, C138A, C202A, S225M (from UniProt P16753 1-256) (enzyme) |  |  |  |  |  |  |  |  | stoichiometry N [13]: 2
